From patent publication US8853207B2 (Development Center for Biotechnology, priority 2012, dated 2014)
Counter-ions that a name gives are not always drawn.

Biological target: FLT3 kinase (FLT3 kinase domain alone, Upstate) (Homo sapiens (Human), UniProt P36888)
Experiment: FLT3 kinase assay ([33P] incorporation into substrate)
Type: biochemical
Conditions: 100 μM ATP, 30° C., 30 minutes; read-out: IC50 against FLT3
Protocol: Inhibition of FLT3 kinase activity by compounds disclosed herein was quantified by measuring the amount of [^33P] incorporated into the substrate in the presence of a test compound. Briefly, a reaction mixture of 25 μL final volume containing 5 ng of FLT3 kinase (FLT3 kinase domain alone, Upstate), 5 μg of the substrate [(Poly (Glu-Tyr, 4:1), Sigma], kinase reaction buffer (20 mM MOPS pH 7.0, 1 mM EDTA, 5% glycerol, 0.01% Brij-35, 0.1% β-mercaptoethanol, 1 mg/mL BSA, 100 μM ATP, 0.1 μCi per well [^33P]-γ-ATP (2,500-3,000 Ci/mmol)), and a test compound (diluted from 9 μM to the desired final concentration by 4% DMSO) or DMSO (as the control) was incubated at 30° C. for 30 minutes. The reaction was stopped by adding 5 μL of 3% phosphoric acid solution. The resultant solution (30 μL) was later harvested by a UniFilter Plate GF/B (PerkinElmer) followed by adding 30 μL of the scintillation cocktail (MicroScint 20, PerkinElmer) to the well. The radioactivity retained on the filter membrane was measured by a luminescence counter (PerkinElmer). The results were analyzed by using linear regression software (GraphPad Prism 4; GraphPad Software Inc.).

Chain of FLT3 kinase (FLT3 kinase domain alone, Upstate) (P36888 610-943): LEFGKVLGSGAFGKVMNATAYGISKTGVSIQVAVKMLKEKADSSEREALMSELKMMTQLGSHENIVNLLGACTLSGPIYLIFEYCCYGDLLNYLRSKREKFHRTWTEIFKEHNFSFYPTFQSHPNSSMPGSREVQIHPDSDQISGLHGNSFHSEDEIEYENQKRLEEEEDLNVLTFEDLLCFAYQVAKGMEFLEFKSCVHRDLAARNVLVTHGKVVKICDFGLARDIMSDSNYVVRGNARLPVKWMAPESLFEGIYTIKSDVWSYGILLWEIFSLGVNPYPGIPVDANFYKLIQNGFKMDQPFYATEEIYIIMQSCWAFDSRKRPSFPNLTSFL

Q: With Brc1ccccc1-c1n[nH]c2c1Cc1sccc1-2 [Example-44, 6-(2-Bromo-phenyl)-4,7-dihydro-1-thia-4,5-diaza-cyclopenta[a]pentalene] as the molecule, how does the IC50 read?
A: Its IC50 is greater than 1000 nM.

Q: With COc1ccccc1Nc1n[nH]c2c1Cc1sccc1-2 [Example-45, (4,7-Dihydro-1-thia-4,5-diaza-cyclopenta[a]pentalen-6-yl)-(2-methoxy-phenyl)-amine] as the molecule, how does the IC50 read?
A: Its IC50 is 100 to 499 nM.

Q: FC(F)(F)Oc1ccc(Nc2n[nH]c3c2Cc2sccc2-3)cc1 [Example-46, (4,7-Dihydro-1-thia-4,5-diaza-cyclopenta[a]pentalen-6-yl)-(4-trifluoromethoxy-phenyl)-amine] was tested. Which IC50 did it give?
A: The IC50 was 500 to 1000 nM.

Q: How did the IC50 turn out when Brc1cccc(-c2n[nH]c3c2Cc2sccc2-3)c1 [Example-47, 6-(3-Bromo-phenyl)-4,7-dihydro-1-thia-4,5-diaza-cyclopenta[a]pentalene] was run?
A: Its IC50 is less than 100 nM.

Q: With FC(F)(F)Oc1ccccc1Nc1n[nH]c2c1Cc1sccc1-2 [Example-48, (4,7-Dihydro-1-thia-4,5-diaza-cyclopenta[a]pentalen-6-yl)-(2-trifluoromethoxy-phenyl)-amine] as the molecule, how does the IC50 read?
A: The IC50 was greater than 1000 nM.

Q: With Clc1cc(Cl)cc(Nc2n[nH]c3c2Cc2sccc2-3)c1 [Example-49, (3,5-Dichloro-phenyl)-(4,7-dihydro-1-thia-4,5-diaza-cyclopenta[a]pentalen-6-yl)-amine] as the molecule, how does the IC50 read?
A: The IC50 was 100 to 499 nM.

Q: With O=C1c2sccc2-c2[nH]nc(-c3cccc(Cl)c3)c21 [Example-50, 6-(3-Chloro-phenyl)-4H-1-thia-4,5-diaza-cyclopenta[a]pentalen-7-one] as the molecule, how does the IC50 read?
A: The IC50 was 100 to 499 nM.

Q: Which IC50 does the source give for COc1ccccc1-c1n[nH]c2c1Cc1sccc1-2 [Example-51, 6-(2-Methoxy-phenyl)-4,7-dihydro-1-thia-4,5-diaza-cyclopenta[a]pentalene] here?
A: Its IC50 is less than 100 nM.

Q: Clc1ccc(Nc2n[nH]c3c2Cc2sccc2-3)cc1Cl [Example-53, (3,4-Dichloro-phenyl)-(4,7-dihydro-1-thia-4,5-diaza-cyclopenta[a]pentalen-6-yl)-amine] was tested. Which IC50 did it give?
A: The IC50 was 100 to 499 nM.

Q: How did the IC50 turn out when Clc1cccc(Nc2n[nH]c3c2Cc2sccc2-3)c1Cl [Example-54, (2,3-Dichloro-phenyl)-(4,7-dihydro-1-thia-4,5-diaza-cyclopenta[a]pentalen-6-yl)-amine] was run?
A: Its IC50 is 100 to 499 nM.

Q: How did the IC50 turn out when O=S(=O)(c1ccc(Nc2n[nH]c3c2Cc2sccc2-3)cc1)N1CCCCC1 [Example-55, (4,7-Dihydro-1-thia-4,5-diaza-cyclopenta[a]pentalen-6-yl)-[4-(piperidine-1-sulfonyl)-phenyl]-amine] was run?
A: The IC50 was 100 to 499 nM.

Q: For Nc1ccc(-c2n[nH]c3c2C(=O)c2sccc2-3)cc1 [Example-56, 6-(4-Amino-phenyl)-4H-1-thia-4,5-diaza-cyclopenta[a]pentalen-7-one], which IC50 is on record?
A: The IC50 was less than 100 nM.

Q: Clc1cc(Cl)cc(-c2n[nH]c3c2Cc2sccc2-3)c1 [Example-57, 6-(3,5-Dichloro-phenyl)-4,7-dihydro-1-thia-4,5-diaza-cyclopenta[a]pentalene] was tested. Which IC50 did it give?
A: The IC50 was 100 to 499 nM.

Q: Which IC50 does the source give for c1ccc(-c2n[nH]c3c2Cc2sccc2-3)nc1 [Example-58, 6-Pyridin-2-yl-4,7-dihydro-1-thia-4,5-diaza-cyclopenta[a]pentalene] here?
A: The IC50 was 100 to 499 nM.

Q: With Nc1cccc(-c2n[nH]c3c2Cc2sccc2-3)c1 [Example-59, 3-(4,7-Dihydro-1-thia-4,5-diaza-cyclopenta[a]pentalen-6-yl)-phenylamine hydrochloride] as the molecule, how does the IC50 read?
A: Its IC50 is 100 to 499 nM.

Q: With c1cc(-c2n[nH]c3c2Cc2sccc2-3)ccn1 [Example-60, 6-Pyridin-4-yl-4,7-dihydro-1-thia-4,5-diaza-cyclopenta[a]pentalene] as the molecule, how does the IC50 read?
A: Its IC50 is less than 100 nM.

Q: [O-][n+]1ccc(-c2n[nH]c3c2Cc2sccc2-3)cc1 [Example-61, 6-(1-Oxy-pyridin-4-yl)-4,7-dihydro-1-thia-4,5-diaza-cyclopenta[a]pentalene] was tested. Which IC50 did it give?
A: The IC50 was 100 to 499 nM.

Q: How did the IC50 turn out when c1cc(Nc2ccc(-c3n[nH]c4c3Cc3sccc3-4)cc2)ccn1 [Example-62, [4-(4,7-Dihydro-1-thia-4,5-diaza-cyclopenta[a]pentalen-6-yl)-phenyl]-pyridin-4-yl-amine hydrochloride] was run?
A: Its IC50 is less than 100 nM.

Q: For c1cncc(Nc2ccc(-c3n[nH]c4c3Cc3sccc3-4)cc2)c1 [Example-63, [4-(4,7-Dihydro-1-thia-4,5-diaza-cyclopenta[a]pentalen-6-yl)-phenyl]-pyridin-3-yl-amine], which IC50 is on record?
A: Its IC50 is less than 100 nM.

Q: With Brc1ccc(-c2n[nH]c3c2Cc2sccc2-3)cn1 [Example-64, 6-(6-Bromo-pyridin-3-yl)-4,7-dihydro-1-thia-4,5-diaza-cyclopenta[a]pentalene] as the molecule, how does the IC50 read?
A: Its IC50 is 100 to 499 nM.

Q: For COc1ccc(-c2n[nH]c3c2Cc2sc(-c4ccccc4)cc2-3)cc1 [Example-65, 6-(4-Methoxy-phenyl)-2-phenyl-4,7-dihydro-1-thia-4,5-diaza-cyclopenta[a]pentalene], which IC50 is on record?
A: The IC50 was less than 100 nM.

Q: Which IC50 does the source give for Nc1ccc(-c2n[nH]c3c2Cc2sccc2-3)cn1 [Example-66, 5-(4,7-Dihydro-1-thia-4,5-diaza-cyclopenta[a]pentalen-6-yl)-pyridin-2-ylamine hydrochloride] here?
A: Its IC50 is less than 100 nM.

Q: For Brc1ccc(-c2n[nH]c3c2Cc2sc(Br)cc2-3)cn1 [Example-67, 2-Bromo-6-(6-bromo-pyridin-3-yl)-4,7-dihydro-1-thia-4,5-diaza-cyclopenta[a]pentalene], which IC50 is on record?
A: The IC50 was 100 to 499 nM.

Q: With O=C1c2sccc2-c2[nH]nc(-c3ccc(Br)nc3)c21 [Example-68, 6-(6-Bromo-pyridin-3-yl)-4H-1-thia-4,5-diaza-cyclopenta[a]pentalen-7-one] as the molecule, how does the IC50 read?
A: Its IC50 is 500 to 1000 nM.

Q: How did the IC50 turn out when COc1ccc(-c2n[nH]c3c2Cc2sc(-c4ccc(F)cc4)cc2-3)cc1 [Example-71, 2-(4-Fluoro-phenyl)-6-(4-methoxy-phenyl)-4,7-dihydro-1-thia-4,5-diaza-cyclopenta[a]pentalene] was run?
A: The IC50 was less than 100 nM.

Q: How did the IC50 turn out when COc1ccc(-c2n[nH]c3c2Cc2sc(-c4ccc(F)c(F)c4)cc2-3)cc1 [Example-72, 2-(3,4-Difluoro-phenyl)-6-(4-methoxy-phenyl)-4,7-dihydro-1-thia-4,5-diaza-cyclopenta[a]pentalene] was run?
A: The IC50 was less than 100 nM.

Q: COc1ccc(-c2cc3c(s2)Cc2c(-c4ccc(OC)cc4)n[nH]c2-3)cc1 [Example-73, 2,6-Bis-(4-methoxy-phenyl)-4,7-dihydro-1-thia-4,5-diaza-cyclopenta[a]pentalene] was tested. Which IC50 did it give?
A: Its IC50 is less than 100 nM.

Q: For COc1ccc(-c2n[nH]c3c2Cc2sc(-c4ccc(OC)c(OC)c4)cc2-3)cc1 [Example-74, 2-(3,4-Dimethoxy-phenyl)-6-(4-methoxy-phenyl)-4,7-dihydro-1-thia-4,5-diaza-cyclopenta[a]pentalene], which IC50 is on record?
A: Its IC50 is less than 100 nM.

Q: For COc1ccc(-c2n[nH]c3c2Cc2sc(-c4ccc(O)c(OC)c4)cc2-3)cc1 [Example-75, 2-Methoxy-4-[6-(4-methoxy-phenyl)-4,7-dihydro-1-thia-4,5-diaza-cyclopenta[a]pentalen-2-yl]-phenol], which IC50 is on record?
A: Its IC50 is less than 100 nM.

Q: How did the IC50 turn out when COc1ccc(-c2n[nH]c3c2Cc2sc(-c4ccoc4)cc2-3)cc1 [Example-77, 2-Furan-3-yl-6-(4-methoxy-phenyl)-4,7-dihydro-1-thia-4,5-diaza-cyclopenta[a]pentalene] was run?
A: The IC50 was less than 100 nM.

Q: With COc1ccc(-c2n[nH]c3c2Cc2sc(-c4cnc(N)nc4)cc2-3)cc1 [Example-79, 5-[6-(4-Methoxy-phenyl)-4,7-dihydro-1-thia-4,5-diaza-cyclopenta[a]pentalen-2-yl]-pyrimidin-2-ylamine] as the molecule, how does the IC50 read?
A: Its IC50 is less than 100 nM.

Q: How did the IC50 turn out when CN1CCN(c2ccc(-c3n[nH]c4c3Cc3sccc3-4)cc2)CC1 [Example-80, 6-[4-(4-Methyl-piperazin-1-yl)-phenyl]-4,7-dihydro-1-thia-4,5-diaza-cyclopenta[a]pentalene] was run?
A: Its IC50 is less than 100 nM.

Q: Which IC50 does the source give for COc1ccc(-c2n[nH]c3c2Cc2sc(-c4ccc(N5CCN(C)CC5)nc4)cc2-3)cc1 [Example-81, 6-(4-Methoxy-phenyl)-2-[6-(4-methyl-piperazin-1-yl)-pyridin-3-yl]-4,7-dihydro-1-thia-4,5-diaza-cyclopenta[a]pentalene] here?
A: The IC50 was less than 100 nM.

Q: For COc1ccc(-c2n[nH]c3c2Cc2sc(-c4ccc(OC)c(F)c4)cc2-3)cc1 [Example-83, 2-(3-Fluoro-4-methoxy-phenyl)-6-(4-methoxy-phenyl)-4,7-dihydro-1-thia-4,5-diaza-cyclopenta[a]pentalene], which IC50 is on record?
A: Its IC50 is less than 100 nM.

Q: For c1cc2c(s1)Cc1c(-c3ccc(N4CCCC4)cc3)n[nH]c1-2 [Example-84, 6-(4-Pyrrolidin-1-yl-phenyl)-4,7-dihydro-1-thia-4,5-diaza-cyclopenta[a]pentalene], which IC50 is on record?
A: The IC50 was 100 to 499 nM.

Q: For c1cc2c(s1)Cc1c(-c3ccc(N4CCOCC4)cc3)n[nH]c1-2 [Example-85, 6-(4-Morpholin-4-yl-phenyl)-4,7-dihydro-1-thia-4,5-diaza-cyclopenta[a]pentalene], which IC50 is on record?
A: Its IC50 is less than 100 nM.

Q: With COc1ccc(-c2n[nH]c3c2Cc2sc(-c4cccc(N)c4)cc2-3)cc1 [Example-86, 3-[6-(4-Methoxy-phenyl)-4,7-dihydro-1-thia-4,5-diaza-cyclopenta[a]pentalen-2-yl]-phenylamine] as the molecule, how does the IC50 read?
A: The IC50 was less than 100 nM.

Q: COc1ccc(-c2n[nH]c3c2C(=O)c2sc(-c4ccc(N)nc4)cc2-3)cc1 [Example-87, 2-(6-Amino-pyridin-3-yl)-6-(4-methoxy-phenyl)-4H-1-thia-4,5-diaza-cyclopenta[a]pentalen-7-one] was tested. Which IC50 did it give?
A: Its IC50 is less than 100 nM.

Q: Which IC50 does the source give for Nc1ccc(-c2cc3c(s2)Cc2c(-c4ccc(N5CCOCC5)cc4)n[nH]c2-3)cn1 [Example-88, 5-[6-(4-Morpholin-4-yl-phenyl)-4,7-dihydro-1-thia-4,5-diaza-cyclopenta[a]pentalen-2-yl]-pyridin-2-Ylamine hydrochloride] here?
A: The IC50 was less than 100 nM.
